In patent US20220193241A1, “AGENT TARGETING DOUBLE-MEMBRANE ORGANELLE DNA” (CHIBA-PREFECTURE, priority 2019, published 2022):

How the values were obtained:
HeLa cells = experiment: WST cell proliferation assay of library compounds; type: cell-based; details: Homo sapiens, 120 h, 5 days
Method: (§1) This compound can recognize the T4216C mutation of mitochondrial ND1 gene, and a uterine cervical cancer cell line C33A has this mutation. Cell proliferation assay with wild-type HeLa cells, which is also a uterine cervical cancer cell line, was conducted in the same manner as in Example 1. 1000 cells were inoculated to a 96-well plate, and CCC1283-TPP was administered at 0.5, 1, 5, 10, and 20 μM. 5 days later, WST assay was conducted.
as §1, with “CCCh531-TPP” for “CCC1283-TPP”
(§2) Compound CCCh560-TPP with a decacyclic structure targeting the A8860G polymorphism of mitochondrial gene ATP6 found in human populations, not acquired mitochondrial mutations in somatic cells, was studied for whether the suppression of cell proliferation was also found by 5-day treatment with the compound for the mitochondrial DNA polymorphism in cancer cell lines C33A, HeLa, Siha, Caski, and ME180 having this polymorphism in homoplasmy and human nontumor skin-derived fibroblast HDF cells. For this purpose, cell proliferation assay was conducted in the same manner as in Example 1. 1000 cells were inoculated to a 96-well plate, and CCCh560-TPP was administered at 0.5, 1, 5, 10, and 20 μM. 5 days later, WST assay was conducted.

C33A = experiment: WST cell proliferation assay of library compounds; type: cell-based; details: Homo sapiens, C-33-A, 120 h, 5 days
Method: as §1
as §1, with “CCCh531-TPP” for “CCC1283-TPP”
as §2

Siha = experiment: WST cell proliferation assay of library compounds; type: cell-based; details: Homo sapiens, 120 h, 5 days
Excerpt: as §2

Caski = experiment: WST cell proliferation assay of library compounds; type: cell-based; details: Homo sapiens, Ca-Ski, 120 h, 5 days
Excerpt: as §2

[1] = test system: HDF (human skin fibroblasts); experiment: WST cell proliferation assay of library compounds; type: cell-based; details: 5 days
Excerpt: as §2

ME180 = experiment: WST cell proliferation assay of library compounds; type: cell-based; details: Homo sapiens, ME-180, 120 h; ME180, 5 days
Excerpt: as §2

3243G High cells [2] = experiment: Cell death induction: DAPI nuclear staining and cleaved caspase-3 immunostaining; type: cell-based, human; details: 25 μM, 5 days
Method: In order to confirm that the suppression of cell proliferation by CCC020-TPP was the induction of cell death, the 3243G High cells were inoculated at 5×10^4 cells/dish to a 35 mm glass base dish (IWAKI), cultured for 24 hours, and then treated with CCC020-TPP (final concentration: 25 μM). The cells thus supplemented with CCC020-TPP were further cultured for 5 days and fixed with 4% PFA/PBS at room temperature for 30 minutes. The cells thus fixed were washed with PBS and blocked with TBST containing 5% normal goat serum for 1 hour. After the completion of blocking, the cells were reacted for 1 hour with a primary antibody diluted with TBST, i.e., a rabbit anti-cleaved caspase-3 antibody (for the cells treated for 5 days: Cell Signaling Technology, Inc.) diluted at 1:200.

HeEB1 cells = experiment: mRNA expression of cell cycle arrest- and apoptosis-related genes by real-time PCR; type: cell-based, human; details: 25 μM, 3 days
Method: (§3) In order to elucidate the mechanism of the cell proliferation suppressive effect by CCC020-TPP administration, expression analysis at the mRNA level was conducted by real-time PCR. The mtDNA mutation cell line (3243G High) and the normal cell line (HeEB1) were inoculated at 5×10^5 cells/dish and 1×10^5 cells/dish, respectively, to 6 cm dishes (Falcon), cultured for 24 hours, and then treated with CCC020-TPP (final concentration: 25 μM). After further culture for 3 days, RNA was extracted using RNeasy Plus Mini Kit (QIAGEN) according to the instruction manual. The yield of the RNA thus extracted was measured using NANO DROP 2000™ (Thermo Fisher Scientific). The reverse-transcription reaction of RNA was performed with 500 ng of RNA per sample using SuperScript VILO Master Mix (Invitrogen) to synthesize cDNA. The synthesized cDNA was diluted 5-fold with ultrapure water.
(§4) Real-time PCR employed Power SYBR Green Master Mix (Applied Biosystems), and cDNA sample preparation, PCR reaction and analysis were conducted. The primers and reaction conditions used are shown below.
(§5) The PCR reaction conditions were as follows.

3243G High cells [3] = experiment: as above; type: cell-based, human; details: 25 μM, 3 days
Method: as §3, §4, §5

3243G High cells [4] = experiment: WST assay of cell proliferation with morphological observation; type: cell-based, human; details: 5 days
Method: (§6) The proliferation suppressive effect of CCC020-TPP on cells having the mitochondrial A3243G mutation was evaluated by WST assay. Both a mitochondrial DNA mutated cell line and a normal cell line were inoculated at 1×10^3 cells/well to 96-well plates (Thermo Fisher Scientific), cultured for 24 hours, and then treated with CCC020-TPP (final concentration: 0, 0.1, 1, 10, 20, and 50 μM). The cells were further cultured for 5 days and then morphologically observed under optical microscope IX71 (OLYMPUS, Tokyo, Japan). Then, cell survival rates were calculated using Cell counting kit-8 (DOJINDO, Kumamoto, Japan) according to the instruction manual. DMSO (FUJIFILM Wako Pure Chemical Corp.) (final concentration: 1%) was added as a control to cells.
(§7) IC50 was calculated according to the following expression:
(§8) IC50=10(LOG(A/B)×(50−C)/(D−C)+LOG(B)) • A: higher concentration across the concentration at the cell survival rate of 50% • B: lower concentration across the concentration at the cell survival rate of 50% • C: inhibition rate at the lower concentration across the concentration at the cell survival rate of 50% • D: inhibition rate at the higher concentration across the concentration at the cell survival rate of 50%

HeEB1 (HeLamtHeLa) cells = experiment: as above; type: cell-based, human; details: 5 days
Method: as §6, §7, §8

3243G Low cells = experiment: as above; type: cell-based, human; details: 5 days
Method: as §6, §7, §8

SMILES	IC50 (HeLa cells)	IC50 (C33A)	IC50 (Siha)	IC50 (Caski)	suppression of proliferation (WST) ([1]; 0.5-20 μM)	IC50 (WST) [1]	IC50 (ME180)	cleaved caspase-3-positive cells (apoptosis) (3243G High cells [2])	cells with fragmentation of the nucleus (3243G High cells [2]; DAPI)	expression of P21, BAX and MCL1 (HeEB1 cells)	expression of antiapoptosis-related gene MCL1 (3243G High cells [3])	expression of cell cycle arrest-related gene P21 (3243G High cells [3])	expression of proapoptosis-related gene BAX (3243G High cells [3])	suppression of cell proliferation (WST) (3243G High cells [4]; 0.1-50 μM)	cell morphology under optical microscope (3243G High cells [4])	suppression of cell proliferation (WST) (HeEB1 (HeLamtHeLa) cells; 0.1-50 μM)	cell morphology under optical microscope (HeEB1 (HeLamtHeLa) cells)	suppression of cell proliferation (WST) (3243G Low cells; 0.1-50 μM)	cell morphology under optical microscope (3243G Low cells)
CN(C)CCCNC(=O)CCNC(=O)c1cc(NC(=O)c2cc(NC(=O)CCNC(=O)c3nc(NC(=O)c4cc(NC(=O)c5nc(NC(=O)CCCNC(=O)c6cc(NC(=O)c7nc(NC(=O)CCNC(=O)c8nc(NC(=O)c9nc(NC(=O)c%10nc(NC(=O)CCNC(=O)CCCC[P+](c%11ccccc%11)(c%11ccccc%11)c%11ccccc%11)cn%10C)cn9C)cn8C)cn7C)cn6C)cn5C)cn4C)cn3C)cn2C)cn1C [CCCh560-TPP]	7.75 µM	1.65 µM	12.6 µM	5.5 µM	tendency to suppress the proliferation	incalculable	3.24 µM	–	–	–	–	–	–	–	–	–	–	–	–
CN(C)CCCNC(=O)CCNC(=O)c1cc(NC(=O)c2cc(NC(=O)CCNC(=O)c3nc(NC(=O)c4nc(NC(=O)c5nc(NC(=O)CCNC(=O)CCCC[P+](c6ccccc6)(c6ccccc6)c6ccccc6)cn5C)cn4C)cn3C)cn2C)cn1C [CCC020-TPP]	–	–	–	–	–	–	–	approximately half	approximately 60%	no change in expression was found	significantly decreased	significantly increased	significantly increased	cell proliferation suppressive effect was markedly found	cells that seemed to undergo apoptosis were markedly observed	cell proliferation was not suppressed	no morphological change in cells was found	cell proliferation suppressive effect was markedly found	no morphological change in cells was found
